Measured values taken from patent US9789096B2, “Methods and compositions for selective and targeted cancer therapy” (Board of Regents of the University of Texas System, priority 2013, dated 2017).
pIC50: −log10 of the molar value.

tested on: HBEC30KT; assay: Cell viability (ATP, Cell Titer Glo, 4 days), HBEC30KT; assay type: cell-based, human; conditions: Homo sapiens, Tables 3 and 4; read-out: HBEC30KT IC50
Description: (§1) FIG. 6A. […] Cell viability is plotted vs. compound concentration. Compound was added to cells plated at 15% confluence in 96-well plates in RPMI-1640 media supplemented with 5% Fetal Bovine Serum and 2 mM L-Glutamine. After 4 days of incubation, ATP levels were measured using Cell Titer Glo (Promega). Data are presented as the average of 2 replicates ±SEM.
(§2) Selectivity may be measured by the half maximal inhibitory concentration (IC50), which, as used herein, is a measure of the effectiveness of a compound in killing cells. This quantitative measure indicates how much of a particular compound is needed to kill a particular cell population by half (e.g., as indicated by the amount of ATP). […] The IC50 can be determined by constructing a dose-response curve. The lower the IC50, the higher the potency, and the greater the difference between IC50 values for different cell lines (e.g., sensitive lines vs. insensitive lines, and sensitive lines vs. normal lines) the greater the selectivity. […]

Row | Structure (SMILES) | pIC50
1 | O=S(=O)(Nc1nc2ccccc2s1)c1ccc(C(F)(F)F)cc1 [SW202754] | 3.70
2 | Cc1cccc(C(=O)Nc2nc3ccccc3s2)c1 [SW202755] | 3.98
3 | COc1ccc2nc(NC(=O)c3cccnc3)sc2c1 [SW202774-1] | 4.33
4 | CCOC(=O)c1c(NC(=O)c2ccc(F)cc2)sc2c1CCCC2 [SW202859-1] | 4.42

tested on: H1155; assay: Cell viability dose-response, H1155; assay type: cell-based; conditions: Homo sapiens, NCI-H1155; Tables 3 and 4; read-out: IC50 (uM) vs indicated non-small cell lung cancer cell line H1155
Description: as §1, §2
(§3) With this information, we synthesized and tested a series of small molecules derived in conception from the oxalamide and chromone scaffold including N-acyl ureas, as shown in Tables 6-8. Each compound was tested in a 12-point dose-response study starting at 50 micromolar and decreasing in 3-fold increments to sub-nanomolar concentrations, in duplicate. Additionally, one or more additional cell line was tested in the same way.

Row | Structure (SMILES) | IC50
5 | O=C(Nc1nc2c(s1)CCCC2)c1ccc(Cc2ccccc2)cc1 [SW011940] | 21.7 µM
6 | COc1ccc2nc(NC(=O)c3cccnc3)sc2c1 [SW202774-1] | 35.2 µM
7 | COc1ccc2nc(NC(=O)c3c(F)ccc(OC)c3F)sc2c1 [SW202775-1] | 35.5 µM
8 | CCOc1cc(OCC)cc(C(=O)Nc2nc3ccc(OC)cc3s2)c1 [SW202776-1] | 46.2 µM

tested on: H1395; assay: Cell viability dose-response, H1395; assay type: cell-based; conditions: Homo sapiens, NCI-H1395; Tables 3 and 4; read-out: IC50 (uM) vs indicated non-small cell lung cancer cell line H1395
Description: as §1, §2, §3

Row | Structure (SMILES) | IC50
9 | O=C(Nc1nc2c(s1)CCCC2)c1ccc(Cc2ccccc2)cc1 [SW011940] | 35.6 µM

tested on: H1819; assay: Cell viability dose-response, H1819; assay type: cell-based, human; conditions: Homo sapiens, NCI-H1819, Tables 3 and 4; read-out: IC50 (uM) vs indicated non-small cell lung cancer cell line H1819
Outline: (§4)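 Cells plated at 15% confluence in RPMI-1640 with 5% FBS and 2 mM L-glutamine, treated with compound in a 12-point, 3-fold dilution series from 50 micromolar, in duplicate. ATP measured by Cell Titer Glo after 4 days; IC50 taken from the dose-response curve.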

Row | Structure (SMILES) | IC50
10 | COc1ccccc1NC(=O)c1sc2ccccc2c1Cl [SW004989] | 43.7 µM
11 | O=C(Nc1nc2c(s1)CCCC2)c1ccc(Cc2ccccc2)cc1 [SW011940] | 46.3 µM
12 | O=S(=O)(Nc1nc2ccccc2s1)c1ccc(C(F)(F)F)cc1 [SW202754] | 30.2 µM
13 | Cc1cccc(C(=O)Nc2nc3ccccc3s2)c1 [SW202755] | 47.8 µM

tested on: H1993; assay: Cell viability dose-response, H1993; assay type: cell-based; conditions: Homo sapiens, NCI-H1993; Tables 3 and 4; read-out: IC50 (uM) vs indicated non-small cell lung cancer cell line H1993
Description: as §1, §2, §3

Row | Structure (SMILES) | IC50
14 | COc1ccccc1NC(=O)c1sc2ccccc2c1Cl [SW004989] | > 5 µM
15 | O=C(Nc1nc2c(s1)CCCC2)c1ccc(Cc2ccccc2)cc1 [SW011940] | 12.7 µM
16 | CCN(CC)c1ccc(C(=O)Nc2nc3ccc4ccccc4c3s2)cc1 [SW018825] | 47.5 µM
17 | COc1ccc2nc(NC(=O)c3cccnc3)sc2c1 [SW202774-1] | 25.5 µM
18 | COc1ccc2nc(NC(=O)c3c(F)ccc(OC)c3F)sc2c1 [SW202775-1] | 8.87 µM
19 | CCOC(=O)c1c(NC(=O)c2ccc(F)cc2)sc2c1CCCC2 [SW202859-1] | 47.1 µM

tested on: H2009; assay: Cell viability dose-response, H2009; assay type: cell-based, human; conditions: Homo sapiens, NCI-H2009; Tables 3 and 4; read-out: IC50 (uM) vs indicated non-small cell lung cancer cell line H2009
Outline: (§5)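 Proliferation/viability determined by ATP content following 4-day incubation with test compound in RPMI-1640 + 5% serum + 2 mM glutamine. IC50 taken as the concentration halving ATP signal on the dose-response curve.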

Row | Structure (SMILES) | IC50
20 | COc1ccc2sc(NC(=O)c3ccc([N+](=O)[O-])cc3)nc2c1 [SW004969] | 5.5 µM
21 | COc1ccccc1NC(=O)c1sc2ccccc2c1Cl [SW004989] | > 8 µM
22 | O=C(Nc1nc2c(s1)CCCC2)c1ccc(Cc2ccccc2)cc1 [SW011940] | 7 µM
23 | O=S(=O)(Nc1nc2ccccc2s1)c1ccc(C(F)(F)F)cc1 [SW202754] | 32.7 µM
24 | Cc1cccc(C(=O)Nc2nc3ccccc3s2)c1 [SW202755] | 53.9 µM
25 | COc1ccc2nc(NC(=O)c3cccnc3)sc2c1 [SW202774-1] | 36.6 µM
26 | CCOc1cc(OCC)cc(C(=O)Nc2nc3ccc(OC)cc3s2)c1 [SW202776-1] | 15.3 µM

tested on: H2073; assay: Cell viability dose-response, H2073; assay type: cell-based, human; conditions: Homo sapiens, NCI-H2073, Tables 3 and 4; read-out: IC50 (uM) vs indicated non-small cell lung cancer cell line H2073
Outline: as §5

Row | Structure (SMILES) | IC50
27 | COc1ccc2sc(NC(=O)c3ccc([N+](=O)[O-])cc3)nc2c1 [SW004969] | 0.658 µM
28 | COc1ccccc1NC(=O)c1sc2ccccc2c1Cl [SW004989] | 0.052 µM
29 | O=C(Nc1nc2c(s1)CCCC2)c1ccc(Cc2ccccc2)cc1 [SW011940] | 2.63 µM
30 | CCN(CC)c1ccc(C(=O)Nc2nc3ccc4ccccc4c3s2)cc1 [SW018825] | 0.424 µM
31 | O=S(=O)(Nc1nc2ccccc2s1)c1ccc(C(F)(F)F)cc1 [SW202754] | 24.8 µM
32 | Cc1cccc(C(=O)Nc2nc3ccccc3s2)c1 [SW202755] | 25.1 µM
33 | COc1ccc2nc(NC(=O)c3cccnc3)sc2c1 [SW202774-1] | 1.34 µM
34 | COc1ccc2nc(NC(=O)c3c(F)ccc(OC)c3F)sc2c1 [SW202775-1] | 5.96 µM
35 | CCOc1cc(OCC)cc(C(=O)Nc2nc3ccc(OC)cc3s2)c1 [SW202776-1] | 4.56 µM

same assay, conditions: Tables 3 and 4; read-out: IC50 (uM) vs indicated non-small cell lung cancer cell line H2073

Row | Structure (SMILES) | IC50
36 | COC(=O)c1ccc(C(=O)Nc2nc3ccc(N)cc3s2)cc1 [SW001296] | 3.72 µM

tested on: H2122; assay: Cell viability dose-response, H2122; assay type: cell-based, human; conditions: Homo sapiens, NCI-H2122, Tables 3 and 4; read-out: IC50 (uM) vs indicated non-small cell lung cancer cell line H2122
Outline: as §4

Row | Structure (SMILES) | IC50
37 | COC(=O)c1ccc(C(=O)Nc2nc3ccc(N)cc3s2)cc1 [SW001296] | 35.1 µM
38 | COc1ccc2sc(NC(=O)c3ccc([N+](=O)[O-])cc3)nc2c1 [SW004969] | 0.21 µM
39 | COc1ccccc1NC(=O)c1sc2ccccc2c1Cl [SW004989] | 0.801 µM
40 | O=C(Nc1nc2c(s1)CCCC2)c1ccc(Cc2ccccc2)cc1 [SW011940] | 0.037 µM
41 | CCN(CC)c1ccc(C(=O)Nc2nc3ccc4ccccc4c3s2)cc1 [SW018825] | 0.129 µM
42 | Cc1ccc(NC(=O)c2sc3ccccc3c2Cl)c(F)c1 [SW202551] | 1.36 µM
43 | O=S(=O)(Nc1nc2ccccc2s1)c1ccc(C(F)(F)F)cc1 [SW202754] | 35.4 µM
44 | Cc1cccc(C(=O)Nc2nc3ccccc3s2)c1 [SW202755] | 0.734 µM
45 | COc1ccc2nc(NC(=O)c3cccnc3)sc2c1 [SW202774-1] | 1.08 µM
46 | COc1ccc2nc(NC(=O)c3c(F)ccc(OC)c3F)sc2c1 [SW202775-1] | 6.53 µM

same assay, conditions: Tables 3 and 4; read-out: IC50 (uM) vs indicated non-small cell lung cancer cell line H2122

Row | Structure (SMILES) | IC50
47 | COc1ccccc1NC(=O)c1sc2ccccc2c1Cl [SW004989] | 1.02 µM

tested on: H460; assay: Cell viability dose-response, H460; assay type: cell-based; conditions: Homo sapiens, NCI-H460; Tables 3 and 4; read-out: IC50 (uM) vs indicated non-small cell lung cancer cell line H460
Description: as §1, §2, §3

Row | Structure (SMILES) | IC50
48 | COC(=O)c1ccc(C(=O)Nc2nc3ccc(N)cc3s2)cc1 [SW001296] | 4.46 µM
49 | COc1ccc2sc(NC(=O)c3ccc([N+](=O)[O-])cc3)nc2c1 [SW004969] | 0.521 µM
50 | O=C(Nc1nc2c(s1)CCCC2)c1ccc(Cc2ccccc2)cc1 [SW011940] | 2.13 µM
51 | COc1ccc2nc(NC(=O)c3cccnc3)sc2c1 [SW202774-1] | 1.31 µM
52 | COc1ccc2nc(NC(=O)c3c(F)ccc(OC)c3F)sc2c1 [SW202775-1] | 48 µM

tested on: HCC4017; assay: Cell viability dose-response, HCC4017; assay type: cell-based, human; conditions: Homo sapiens, HCC4017, Tables 3 and 4; read-out: IC50 (uM) vs indicated non-small cell lung cancer cell line HCC4017
Description: as §1, §2, §3

Row | Structure (SMILES) | IC50
53 | COc1ccccc1NC(=O)c1sc2ccccc2c1Cl [SW004989] | 249 µM
54 | O=C(Nc1nc2c(s1)CCCC2)c1ccc(Cc2ccccc2)cc1 [SW011940] | 4.26 µM
55 | Cc1ccc(NC(=O)c2sc3ccccc3c2Cl)c(F)c1 [SW202551] | 390 µM

tested on: HCC44; assay: Cell viability dose-response, HCC44; assay type: cell-based, human; conditions: Homo sapiens, HCC44, Tables 3 and 4; read-out: IC50 (uM) vs indicated non-small cell lung cancer cell line HCC44
Outline: as §5

Row | Structure (SMILES) | IC50
56 | COC(=O)c1ccc(C(=O)Nc2nc3ccc(N)cc3s2)cc1 [SW001296] | 0.34 µM
57 | COc1ccccc1NC(=O)c1sc2ccccc2c1Cl [SW004989] | 56.8 µM
58 | O=C(Nc1nc2c(s1)CCCC2)c1ccc(Cc2ccccc2)cc1 [SW011940] | 50.6 µM
59 | Cc1ccc(NC(=O)c2sc3ccccc3c2Cl)c(F)c1 [SW202551] | 1.42 µM
60 | COc1ccc2nc(NC(=O)c3cccnc3)sc2c1 [SW202774-1] | 1.01 µM
61 | COc1ccc2nc(NC(=O)c3c(F)ccc(OC)c3F)sc2c1 [SW202775-1] | 16.9 µM

same assay, conditions: Tables 3 and 4; read-out: IC50 (uM) vs indicated non-small cell lung cancer cell line HCC44

Row | Structure (SMILES) | IC50
62 | COc1ccccc1NC(=O)c1sc2ccccc2c1Cl [SW004989] | 38.7 µM

tested on: HCC95; assay: Cell viability dose-response, HCC95; assay type: cell-based; conditions: Homo sapiens, Tables 3 and 4, read-out: IC50 (uM) vs indicated non-small cell lung cancer cell line HCC95
Description: as §1, §2, §3

Row | Structure (SMILES) | IC50
63 | COc1ccc2sc(NC(=O)c3ccc([N+](=O)[O-])cc3)nc2c1 [SW004969] | 0.2 µM
64 | O=C(Nc1nc2c(s1)CCCC2)c1ccc(Cc2ccccc2)cc1 [SW011940] | 5.86 µM
65 | CCN(CC)c1ccc(C(=O)Nc2nc3ccc4ccccc4c3s2)cc1 [SW018825] | 2.23 µM
66 | COc1ccc2nc(NC(=O)c3cccnc3)sc2c1 [SW202774-1] | 0.336 µM
67 | COc1ccc2nc(NC(=O)c3c(F)ccc(OC)c3F)sc2c1 [SW202775-1] | 3.19 µM
68 | CCOc1cc(OCC)cc(C(=O)Nc2nc3ccc(OC)cc3s2)c1 [SW202776-1] | 8.15 µM
69 | CCOC(=O)c1c(NC(=O)c2ccc(F)cc2)sc2c1CCCC2 [SW202859-1] | 31.4 µM
